Reference: patent publication US10939684B2, “Preparation of sulfonamide-containing antimicrobials and substrate treating compositions of sulfonamide-containing antimicrobials” (NANO SAFE COATINGS INCORPORATED, priority 2015, dated 2021)
“Also recorded” adds a separate entry of the source.

Experiments:
Format in all cases: cell-based
[1] = tested on: Arthrobacter spp.; experiment: Large-droplet inoculation method, antimicrobial efficacy at solid-air interfaces; conditions: treated polystyrene; for Average / A (cfu) / B (cfu) / C (cfu): load 1.28E+08; for Average: average of A-C; for A (cfu): replicate A; for B (cfu): replicate B; for C (cfu): replicate C
Source text: (§1) Large-droplet inoculation method (Ronan E. et al, Biofouling 2013, 29, 1087-1096) Many pathogens are able to remain viable during extended periods of desiccation on inanimate surfaces. Long-term survival of pathogens in the inanimate environment pose a significant risk for infection transmission and contamination in high-risk environments such as hospital rooms or food-processing plants. The large-droplet inoculation method was developed to simulate the deposition of bacterial species onto exposed surfaces and to determine the ability of these cells to survive desiccation.
(§2) For these tests, small surface coupons were first coated with the antimicrobial using the method described above. Bacterial test species were grown overnight in a shaking incubator and cultures
(§3) were washed twice to replace the growth media with sterile water. 100 μL aliquots of the prepared culture were then inoculated onto multiple coated surfaces and allowed to air-dry within a biological safety cabinet. Drying typically occurred 2-3 hours after inoculation, and surviving cells were enumerated immediately and 24 hours after drying. For enumeration, inoculated coupons were sacrificed in triplicate and placed inside separate tubes containing 5 mL of a 0.9% saline collection liquid. Each coupon was agitated vigorously for 1 minute with a bench-top vortex to transfer cells from the test surface to the collection liquid. Plate counts were then performed on serial dilutions of the collection liquid, and colony counts from triplicate treated surfaces were averaged and compared to colony counts from tests of untreated control surfaces carried out in parallel.
(§4) A range of bacterial species were used in these tests. Arthrobacter spp., a gram-positive lab strain originally isolated from indoor air was used in the bulk of the testing, as it is known to be highly resistant to desiccation and therefore was used as a model for desiccation-tolerant pathogens. Efficacy tests were also carried out against, for example, gram-negative Escherichia coli (E. coli) and gram-positive Staphylococcus aureus (S. aureus), since they all contain pathogenic strains and have been implicated in major nosocomial outbreaks. […] The following are the tabulated bacterial reduction data: […]

[2] = tested on: Escherichia coli (E. coli); experiment: as above; conditions: for Average / A (cfu) / B (cfu) / C (cfu): E. coli, treated polyethylene, load 5.05E+07; for Average: average of A-C; for A (cfu): replicate A; for B (cfu): replicate B; for C (cfu): replicate C; for activity against E. coli (in words): treated polyethylene coupons, compared to untreated control (FIG. 6)
Source text: as §1, §2, §3, §4

[3] = tested on: Staphylococcus aureus (S. aureus); experiment: as above; conditions: for Average / A (cfu) / B (cfu) / C (cfu): S. aureus, treated polyethylene, load 8.30E+05; for Average: average of A-C; for A (cfu): replicate A; for B (cfu): replicate B; for C (cfu): replicate C; for activity against S. aureus (in words): treated polyethylene coupons, compared to untreated control (FIG. 6)
Source text: as §1, §2, §3, §4

[4] = tested on: Arthrobacter spp. planktonic cells; experiment: Static biofilm test in coated polyethylene test tubes, planktonic cell survival; conditions: 48 hours; for Average / A (cfu) / B (cfu) / C (cfu): planktonic cells; for Average: average of A-C; for A (cfu): replicate A; for B (cfu): replicate B; for C (cfu): replicate C; for activity against planktonic cells (in words): initial test and re-challenge (FIG. 9)
Protocol: (§5) The interior of polyethylene test tubes was coated with the sulfonamide QUAT antimicrobial similarly as in Example 32. Tubes were filled with 2.7 mL of growth media (3 g/L TSB) into which 300 μL of Arthrobacter spp. bacterial culture was inoculated. Planktonic cells were sampled after 48 hours of incubation and agitation by removing 100 μL aliquots from each tube. After 48 hours, the liquid in each tube was removed completely so that biofilm attachment to the interior of the tubes could be assessed. To test for biofilm attachment the tubes were first gently rinsed in a saline solution to remove any loosely attached or residual planktonic cells. Next, 1 mL of saline solution was added to each tube before the tubes were vortexed vigorously for 1 minute to transfer biofilm cells to the collection liquid. Plate counts were then performed on serial dilutions of this collection liquid. Planktonic and biofilm colony counts from triplicate coated tubes were averaged and compared to colony counts from tests of uncoated control tubes carried out in parallel. After 14 days of exposure to ambient air, the tubes used in the above test were subjected to a second static biofilm test as described above, without reapplying the antimicrobial. This test was performed to determine whether the antimicrobial effects of the coating persisted following repeated exposures.

[5] = tested on: Arthrobacter spp. biofilm cells; experiment: Static biofilm test in coated polyethylene test tubes, biofilm cell survival; conditions: for Average / A (cfu) / B (cfu) / C (cfu): biofilm cells, 48 hours; for Average: average of A-C; for A (cfu): replicate A; for B (cfu): replicate B; for C (cfu): replicate C
Protocol: as §5

[6] = listed as 3-(4-benzoylphenoxy)-N,N-dimethyl-N-(3-(2,4,6-trimethylphenyl sulfonamido)propyl)
[7] = listed as 3-(4-benzoylphenoxy)-N,N-dimethyl-N-(3-(2,4,6-trimethylphenylsulfonamido)propyl)
[8] = initial test, treated polyethylene test tubes, load 7.75E+08
[9] = rechallenge after 14 days without reapplying, load 8.00E+08

## Cc1cc(C)c(S(=O)(=O)NCCC[N+](C)(C)CCCOc2ccc(C(=O)c3ccccc3)cc2)c(C)c1.[Br-] [Example 3c, 3-(4-benzoylphenoxy)-N,N-dimethyl-N-(3-(2,4,6-trimethylphenylsulfonamido)propyl)propan-1-aminium bromide]
[1]; compared to untreated control (FIG. 3)
  activity against Arthrobacter spp. (in words): eradicated within three hours; also recorded: excellent activity
[1]; 3 hours
  Average: 0.00E+00 cfu
  A (cfu): 0.00E+00 cfu
  B (cfu): 0.00E+00 cfu
  C (cfu): 0.00E+00 cfu
[1]; 24 hours
  Average: 0.00E+00 cfu
  A (cfu): 0.00E+00 cfu
  B (cfu): 0.00E+00 cfu
  C (cfu): 0.00E+00 cfu
[2]; 3 hours
  Average: 0.00E+00 cfu
  A (cfu): 0.00E+00 cfu
  B (cfu): 0.00E+00 cfu
  C (cfu): 0.00E+00 cfu
[2]; 24 hours
  Average: 0.00E+00 cfu
  A (cfu): 0.00E+00 cfu
  B (cfu): 0.00E+00 cfu
  C (cfu): 0.00E+00 cfu
[2]; [6]
  activity against E. coli (in words): excellent activity
[2]; [7]
  activity against E. coli (in words): eradicated within three hours
[3]; 3 hours
  Average: 0.00E+00 cfu
  A (cfu): 0.00E+00 cfu
  B (cfu): 0.00E+00 cfu
  C (cfu): 0.00E+00 cfu
[3]; 24 hours
  Average: 0.00E+00 cfu
  A (cfu): 0.00E+00 cfu
  B (cfu): 0.00E+00 cfu
  C (cfu): 0.00E+00 cfu
[3]; [6]
  activity against S. aureus (in words): excellent activity
[3]; [7]
  activity against S. aureus (in words): eradicated within three hours
[4]; [8]
  Average: 0.00E+00 cfu
  A (cfu): 0.00E+00 cfu
  B (cfu): 0.00E+00 cfu
  C (cfu): 0.00E+00 cfu
[4]; [9]
  Average: 0.00E+00 cfu
  A (cfu): 0.00E+00 cfu
  B (cfu): 0.00E+00 cfu
  C (cfu): 0.00E+00 cfu
[4]; treated polyethylene test tubes, listed as 3-(4-benzoylphenoxy)-N,N-dimethyl-N-(3-(2,4,6-trimethylphenyl sulfonamido)propyl)
  activity against planktonic cells (in words): excellent activity
[4]; treated polyethylene test tubes, listed as 3-(4-benzoylphenoxy)-N,N-dimethyl-N-(3-(2,4,6-trimethylphenylsulfonamido)propyl)
  activity against planktonic cells (in words): complete eradication
[5]; [8]
  Average: 0.00E+00 cfu
  A (cfu): 0.00E+00 cfu
  B (cfu): 0.00E+00 cfu
  C (cfu): 0.00E+00 cfu
[5]; [9]
  Average: 0.00E+00 cfu
  A (cfu): 0.00E+00 cfu
  B (cfu): 0.00E+00 cfu
  C (cfu): 0.00E+00 cfu
[5]; treated polyethylene test tubes, 48 hours (FIG. 10)
  activity against biofilm cells / biofilm development (in words): excellent activity
